A word on the melting point: it is the temperature of the solid-liquid transition.

`CCOc1ccc(-n2cccc2-c2ccc(S(N)(=O)=O)cc2)cc1` gave a melting point of 126 to 128 °C.
To `O=C(CCc1cnoc1-c1ccccc1)Nc1nc(-c2ccc(Cl)cc2)cs1` belongs 172 to 173 °C; to `O=C(O)Cc1ccc2c(c1)sc1ccc(Cl)cc12`, 220 to 221 °C; to `CCn1cc(C)c2cnc(NC(=O)c3ccc(C(C)(C)O)cc3)cc21`, 198 to 200 °C.
To `CN1C(=O)C(C(=O)Nc2ccc(Cl)c(Cl)c2)Sc2ccccc21` (centres undefined) belongs 191 to 193 °C; to `Cc1ccccc1NC(=O)Nc1ccc(C(=O)N2Cc3ccccc3Cc3ccccc32)cc1`, 188 to 190 °C; to `COC(=O)c1c([N+](=O)[O-])cccc1S(=O)(=O)N(CCO)CCO`, 92 to 93 °C.
As to `CC(C)Oc1nc(O)ns1`, the melting point is 74 °C.
To `COc1nc(N2CCOCC2)c(Cl)nc1NS(=O)(=O)c1cccc(Cl)c1Cl` belongs 150 to 151 °C.
To `COc1cccc(Sc2c(O)cc(-c3ccccc3)oc2=O)c1` belongs 130 to 131 °C.
To `CC(=O)OC1C(OC(=O)c2ccccc2)C(COC(=O)c2ccccc2)OC1n1cc(F)c(=O)[nH]c1=O` (centres undefined) belongs 96 to 98 °C; to `CCON=C(C)c1cccnc1`, 160 to 162 °C; to `CC(C)CS(=O)(=O)c1ccc(F)c(C#Cc2cc(Cl)ccc2OCC(=O)O)c1`, 141 to 143 °C.
Take `O=c1[nH]c2nc3ccccc3n2c(=O)n1CCc1ccccc1`: the melting point turned out to be 298 °C.
With `O=C(NC(=O)c1cccs1)NC1CCNC(Cc2ccc3ccccc3c2)C1` (centres undefined) the figure was 217 to 219 °C; with `Cl/C(=C\c1ccc(Br)cc1)c1ccc(Cl)cc1`, 108 °C.
With `CCc1cc(C(=O)NCc2ccc(-c3ccc(OC(F)F)cc3)cc2)n(C)n1` the figure was 107 to 108 °C; with `COc1ccc(S(=O)(=O)Nc2ccccc2Cl)cc1OC1CCCC1`, 113 to 115 °C.
To `CCOC(=O)c1cc2c3ccccc3[nH]c(=S)n2n1` belongs 242 to 243 °C.
`O=C1CCC(N2Cc3c(OCc4ccc(CN5CCN(c6ccccn6)C(=O)C5)cc4)cccc3C2=O)C(=O)N1` (centres undefined) came in with a melting point of 224 to 226 °C.
Turning to `N#Cc1cccn1-c1cc(C(=O)N=C(N)N)cc(C(=O)N=C(N)N)c1`, the melting point fell in the range of 251 to 253 °C.
To `CSC(Oc1cc2cc(Br)cnc2cc1F)C(=O)NC(C)(C)C` (centres undefined) belongs 144 to 145 °C; to `Cc1c(NC(=O)c2ccc(OCc3cccc(F)c3)cc2)ccc2cc(CN3CCCC3)cnc12`, 151 to 152 °C.
As to `O=C(/C=C/c1ccc(Br)cc1)Nc1ccccc1C(=O)O`, the melting point lay in the range of 215 to 216 °C.
With `COc1ccc(-c2ccc(C#N)cn2)cc1-c1nc2cc(C#N)ccc2[nH]1` the figure was 316 to 319 °C; with `C=CCSc1ccc(Oc2ccc(C)cc2)nn1`, 115 to 117 °C; with `Cc1cc(Cl)ccc1OCC(=O)N1Cc2ccc(C(=O)c3cccc4ccccc34)n2Cc2ccccc21`, 130 to 134 °C.
On to `CC(=O)OCC1C=CC(n2cc(F)c(N)nc2=O)O1` (centres undefined), for which the melting point lay within 182 to 184 °C.
To `COc1c(N2CC3CCC(N)C3C2)c(F)cc2c(=O)n(N)c(=O)n(C3CC3)c12` (centres undefined) belongs 250 to 252 °C; to `C=C(C(=O)OC)N(Cc1ccccc1NC(=O)C(F)(F)F)S(=O)(=O)c1ccc(OC)cc1`, 120 to 121 °C; to `COc1cccc(OC)c1C(=O)Nc1nnc(-c2nc3ccccc3s2)s1`, > 260 °C.
With `COc1ccc2c(c1)c(SC(C)C)c(C(N)=O)n2C` the figure was 122 to 124 °C.
With `CCOC(=O)c1cccc(Oc2ncccc2O)c1` the figure was 117 to 118 °C; with `C/C(=C(\C#N)C(=S)/N=C/N(C)C)N1CCCN(c2ccc(C)c(F)c2)CC1`, 254 to 256 °C.
`CN(Cc1ccccc1)c1cc(-c2nc(=O)c3ccccc3s2)ccn1` came in with a melting point of 146 to 147 °C.
Compound `Cc1c(C(F)(F)F)cnn(-c2cc(OCC3CCCCC3)c(Cl)cc2F)c1=O` gave a melting point of 90.2 °C.
With `C=CCn1c(NCCOc2ccccc2)nc(N2CCc3ccccc3CC2)c(C#N)c1=O` the figure was 157 to 160 °C; with `CS(=O)(=O)c1ccc(-c2ccccc2CO)cc1`, 123 to 124 °C; with `N#CC(NCc1cccnc1)c1ccoc1` (centres undefined), 80 to 82 °C.
With `CN1C(=O)C(C)(CCN2CCN(c3cccc4ccccc34)CC2)c2cc(F)ccc21` (centres undefined) the figure was 144 to 146 °C; with `O=C(Nc1ccc(O)c(C(=O)O)c1)c1ccc([N+](=O)[O-])cc1`, 270 to 271 °C; with `CCOC(=O)/C=C/c1ccc(OCC2CCCO2)cc1Oc1ncc(C(F)(F)F)cc1Cl` (centres undefined), 84 to 86 °C.
With `Nc1c(Br)cc2c3c(cccc13)C(=O)N(O)C2=O` the figure was 318 to 324 °C; with `Cc1c(Cl)c(C(F)(F)F)nn1-c1cc(OS(C)(=O)=O)c(Cl)cc1F`, 72 to 74.5 °C.
Compound `O=C(Nc1ccc(Cl)cc1)NC1N=C(c2ccccc2)c2ccccc2-n2cnnc21` (centres undefined) had a melting point of 294 to 296 °C.
With `c1csc(NCCc2c[nH]cn2)n1` the figure was 198 to 199 °C; with `CCOC(=O)c1sc(SC)c2c1CCC(NC(C)=O)C2=O` (centres undefined), 215 to 216 °C.
With `CCn1nc(C(F)(F)F)c(CS(=O)(=O)C2=NOC(C)(CCl)C2)c1OC` (centres undefined) the figure was 139 to 140 °C; with `CC(Oc1cccc(Oc2ccc(C(F)(F)F)cc2)c1)C(=O)OCCS(=O)Cc1ccccc1` (centres undefined), 110 to 112 °C; with `N#CSc1sc(NC(=O)c2cccc(C(F)(F)F)c2)nc1C(F)(F)F`, 167 to 168 °C.
With `CC1c2c(Cl)cccc2N=C2NC(=O)CN21` (centres undefined) the figure was 252 °C; with `CC(C(=O)c1ccc2[nH]ccc2c1)N1CCC(O)(c2ccccc2)CC1` (centres undefined), 60 to 70 °C.
In turn, `CCc1nc(/C=C/c2cn(-c3ccccc3)nc2O)c(C)s1` gave a melting point of 184 to 186 °C.
To `COc1ccccc1N1CCN(CCc2ccc3[nH]c(=O)oc3c2)CC1` belongs 182 to 184 °C; to `CC#CCCCn1ncc2c(N)c3c(nc21)CN(CCC)C3=O`, 168 to 170 °C.
Take `O=C(c1ccc(O)cc1)c1cccc(O)c1`: the melting point fell in the range of 200 to 201 °C.
With `CC1(c2ccccc2)OC(=S)N(Nc2ccccc2)C1=O` (centres undefined) the figure was 81 to 85 °C; with `CC(=O)C(Cl)=NNc1ccccc1`, 132 to 134 °C.
With `Cc1ccncc1Cn1nnnc1-c1ccc(Cl)c(Cl)c1` the figure was 167 to 169 °C; with `ON=C(Cc1ccccc1)c1cccnc1`, 122 to 126 °C; with `C=CC(=O)NCCCCOc1ccccc1`, 46 to 47 °C.
To `Cc1nccc(N2CCC(O)(CN3CCN(C(=O)c4ccc(F)cc4)CC3)CC2)n1` belongs 114 to 117 °C; to `CCOC(=O)C1=C(C)N=C(SCc2ccc(OC)cc2)N(S(=O)(=O)c2ccccc2)C1c1cccc([N+](=O)[O-])c1` (centres undefined), 86 to 88 °C; to `COc1ccc(-c2ccc(CCNC(=O)c3cc(Cl)ccc3OC)cc2S(N)(=O)=O)cc1`, 205 to 208 °C.

The values above are taken from a melting point compilation (Tetko et al.; mined from patent text by program, amines drawn as free bases though some values may be those of a salt).
